One molecule from patent US20260151413A1, “ANTICANCER DRUG CONJUGATES” (Ariel Scientific Innovations Ltd., priority 2022, published 2026) can be followed below.

Molecules are shown by their SMILES. “Also recorded” adds a separate entry of the source. Where two headings read alike, the source gives them in different places.

One data set relates to HEL. Briefly: WST-1 proliferation assay, HEL. As to conditions: Homo sapiens, HEL; WST-1, 48 hours of treatment. The format is cell-based, human. The method, then:
(§1) Albert Pinhasov (Ariel University, Ariel, Israel). […] Granta cells were kindly provided by Prof.
(§2) Table 3 [resents the calculated IC50 values (μM) for each chimera in different hematological malignancies cell-lines. The proliferation rate was measured by WST-1 assay after 48 hours of treatment. The result shown for each concentration point represents the […]
Background: Formazan colour is commonly taken as a measure of viable cells.

Data set [1] relates to OCI-AML3, KG-1a, Granta, Jeko-1 and BV-173 cells. Put plainly: Mitochondrial depolarization (Muse Mitochondrial Kit). The format is cell-based. As to conditions: 50-250 nM depending on cell line, 48 hours, compared to the parental drug. The method, then: Changes in mitochondrial potential and cellular plasma membrane permeabilization, were determined with the Muse® Mitochondrial Kit (Luminex, USA). Briefly, Cells were treated with DMSO or the relevant chimera for 48 hours. The cells were incubated with MitoPotential working solution for 20 minutes at 37° C. in 5% CO2. Then, 5 μL Muse® MitoPotential 7-ADD reagent were added and the cells were incubated for 5 minutes at room temperature. The percentage of four cell populations: live (mitopotential+/7−AAD−), depolarized live (mitopotential−/7−AAD−), dead (mitopotential+/7−AAD+), and depolarized dead (mitopotential−/7−AAD+) were measured using the Muse® Cell Analyzer (Luminex, USA).
(§3) Chimera 9 was evaluated for its biological impact on mitochondrial function and cell death. To that end, the inventor treated the following cell lines OCI-AML3 (100 nM), KG-1a (100 nM), Granta (250 nM), Jeko-1 (50 nM) and BV-173 (50 nM) with doxorubicin or chimera 9.

In a further data set the test system is BV-173 cells. Put plainly: DNA damage by dual staining of pH2A.X and pATM. As to conditions: 50 nM, 3 hours, compared to the parental drug. The format is cell-based. The method, then: BV-173 cells (2×10^5 cells/well) were treated with DMSO, Doxorubicin or Doxorubizen. After incubation for 3 hours, phosphorylation level of ATM and H2AX was measured by Muse cell analyzer using Muse Multi-Color DNA Damage Kit (Luminex Corporation, Part number: MCH200107) according to manufacturer's instructions. Phosphorylation levels were determined using Guava software (Luminex/Millipore, USA, version 3.3).
BV-173 cells were exposed to 50 nM chimera 9 or the non-conjugated drug Doxorubicin, and DNA damage was analyzed after 3 hours by using dual staining of phospho-Histone H2A.X (Ser139) and phospho-ATM (Ser1981) antibodies.

Data set [2] has as its system aggressive papillary thyroid cancer cells. Briefly: Proliferation of aggressive papillary thyroid cancer cells. As to conditions: 10 nM and 100 nM, with respect to DMSO control. The format is cell-based. The method, then: Chimera 9 (also referred to herein as Doxorubizen) was evaluated in two different concentrations (10 nM and 100 nM) on aggressive papillary thyroid cancer and with respect to the parent anticancer drug Doxorubicin.

The next data set concerns GRANTA. Put plainly: WST-1 proliferation assay, GRANTA. The format is cell-based. As to conditions: WST-1, 48 hours of treatment. The method, then:
as §1, §2

Another data set concerns MUTZ5. Briefly: WST-1 proliferation assay, MUTZ5. The format is cell-based, human. As to conditions: Homo sapiens; WST-1, 48 hours of treatment. On the procedure: as §1, §2
Another data set concerns JEKO-1. Briefly: WST-1 proliferation assay, JEKO-1. The format is cell-based, human. As to conditions: Homo sapiens, JeKo-1; WST-1, 48 hours of treatment. On the procedure: as §1, §2
For data set [3], the system named is Human primary anaplastic thyroid cancer (ATC) cells. Put plainly: Vitality/proliferation of primary anaplastic thyroid cancer cells. The format is cell-based. Conditions: 100 nM, 250 nM, 500 nM; 3, 5 and 7 days. The method, then:
Human primary anaplastic thyroid cancer (ATC) cells were treated with chimera 9 (100 nM, 250 nM, and 500 nM), or Doxorubicin (100 nM, 250 nM, and 500 nM), or with vehicle, for 3, 5, and 7 days.

In the next data set the test system is Rec-1. Briefly: WST-1 proliferation assay, Rec-1. The format is cell-based, human. As to conditions: Homo sapiens, Rec1; WST-1, 48 hours of treatment. On the procedure:
as §1, §2

The test system of the next data set is MINO. Briefly: WST-1 proliferation assay, MINO. The format is cell-based, human. As to conditions: Homo sapiens, MINO; WST-1, 48 hours of treatment. The method, then:
as §1, §2

Data set [4] deals with 10 hematological cell-lines. Briefly: In vitro cytotoxicity screening on the panel of hematological cell-lines (WST-1).
Experimental: The above cells were cultured in RPMI medium (Gibco, Thermo Fisher Scientific Inc., USA). […] All media were supplemented with 10% heat-inactivated Fetal Bovine Serum (FBS, Biological industries, Israel), 2 mM glutamine (Biological industries, Israel) and 1% penicillin and streptomycin (Biological industries, Israel). Cells were cultured at 37° C. in a humidified incubator with 5% CO2.
Growth inhibition in hematological malignancies cell-lines was measured by tetrazolium WST-1 assay (Roche, Basel, Switzerland). Cells (1*10^4) were treated with various concentrations of the specific chimera or parental drug. After 48 h of incubation, 10 μl of WST-1 reagent was added to the plate and incubated for 1 h at 37° C., at which point the absorbance (450 nm) was measured in an ELISA plate reader (Synergy HTX multi-mode reader, Winooski, Vermont, USA).
MUTZ5 and MHH-CALL4; B-cell Acute lymphocytic leukemia (B-cell ALL) model. DND41; T-ALL model. KG-1a and OCI-AML-3; Acute myeloid leukemia (AML) model and HEL; erythroleukemia model.
The test system of data set [5] is OCI-AML3, KG-1a, Granta, Jeko-1 and BV-173 cells. Put plainly: Apoptosis assay (Muse AnnexinV and Dead Cell kit). The format is cell-based. Conditions: 50-250 nM depending on cell line, 48 hours, compared to the parental drug. On the procedure: Cells were analyzed using the multifunctional Muse®AnnexinV and Dead Cell kit (Luminex/Millipore, Austin, Texas, USA). Cells were treated with indicated concentrations of Doxorubizen, the corresponding parent drug, or with DMSO. After 48 hours of incubation cells were harvested, washed twice in PBS, and 2×10^5 cells were stained with 100 μl of Muse AnnexinV and Dead Cell Reagent. Samples were incubated for 20 min at room temperature in the dark. Cells were analyzed by the Muse®CellAnalyzer system (Millipore, Billerica, MA, USA), and the percentage of apoptosis was determined using Guava software (Luminex/Millipore, USA, version 3.3).
as §3

The subject of data set [6] is triple negative breast cancer (TNBC) MDA 231 cells. Conditions: for weight maintenance, survival and tumor growth suppression compared with doxorubicin: ip administration. The method, then:
Five-week-old athymic Nude-Foxn 1nu male mice (ENVIGO Labs, Nes Ziona, Israel) were subcutaneously inoculated on the dorsal left side with […] (1×10^6 cell) into nu/nu mice, 0.2 mL per mouse) and tumors allowed to establish over time. When tumor volume reached 100 mm^3, Doxorubicin (Dox) and Doxorubizen (Chimera 9) were administered intraperitoneally (ip). Animals were removed from an experiment if either of the following conditions were fulfilled: reduction of 20% or more body weight; tumor volume>0.55 cm^3. The tumor dimensions were measured using a Vernier caliper and the volume was calculated according to the equation: Volume (mm^3) ¼ length×width×width×½ three times per week. The in vivo experiments were approved by the Animal Ethics Committee (Authorization number IL-179-06-19).
Chimera 9 was also evaluated for its effect on breast cancer model. For this evaluation, […] nude female (6-8 weeks) mice (groups 1, 2, two mice per group, groups 3, 4, 5 three mice per group) were inoculated with triple negative breast cancer (TNBC) MDA 231 cells. Group 1 was used as the control for tumor growth. After 10 days, mice were […] (ip) administered with Doxorubicin (groups 2 and 4) and Chimera 9 (Doxorubizen) (groups 3 and 5) in the following regime: ip administration of 2.5 mg/kg Doxorubicin once per week (group 2) and three sequential days per week (group 4); ip administration of 3.5 mg/kg chimera 9 once per week (group 3) and three sequential days per week (group 5). Overall experiment carried out for 5 weeks and 4 days, when the tumor volumes for all the groups were monitored. Tumors were then resected and measured.

The mark [7] stands for this setting: Group 5: ip 3.5 mg/kg, three sequential days per week.

Broadly, the IC50 is the concentration that gives 50% inhibition. A low value points to greater potency. Turning to `COC(=O)N(C)/N=N/c1ccc(CNC2CC(OC3CC(O)(C(=O)CO)Cc4c(O)c5c(c(O)c43)C(=O)c3c(OC)cccc3C5=O)OC(C)C2O)cc1` (stereo not drawn) [Chimera 9, (E)-methyl-3-(4-(((3-hydroxy-2-methyl-6-((3,5,12-trihydroxy-3-(2-hydroxyacetyl)-10-methoxy-6,11-dioxo-1,2,3,4,6,11-hexahydrotetracen-1-yl)oxy)tetrahydro-2H-pyran-4-yl)amino)methyl)phenyl)-1-methyltriaz-2-ene-1-carboxylate], the IC50 in the data set on HEL amounted to 0.97 µM; in the data set on GRANTA, 2.59 µM; in the data set with MUTZ5 it was 0.52 µM; in the data set with JEKO-1 it was 0.85 µM; in the data set with Rec-1 it was 0.52 µM; in the data set with MINO, 0.48 µM. Besides, the mitochondrial membrane potential entry in [1] was “significantly collapsed mitochondrial membrane potential”. For the same molecule, the “DNA damage: co-activation of pH2A.X and pATM” value with BV-173 cells is “significant co-activation of pH2A.X and pATM”. The “proliferation of thyroid cancer cells” value in [2] is “reduce significantly the proliferation”. The “vitality/proliferation of primary human ATC cells” value in data set [3] is recorded as “reduced the vitality/proliferation of primary human ATC cells significantly; also recorded: higher effect”. Moreover, the cytotoxic effect result in data set [4] (250 nM) is “exceptional cytotoxic effect”. In addition, in data set [4] (10 hematological cell-lines, WST-1), the “effect on proliferation rate across the examined cell-lines” value is recorded as “inhibited the proliferation rate in all the examined cell-lines”. Also, the “cytotoxic effect compared to the parental non-conjugated drug” value in data set [4] (chimera vs its parent drug) was “reduced proliferation rate of numerous cell-lines; also recorded: superior to Doxorubicin”. For the same molecule, the rate of apoptosis result in data set [5] was “substantial increase in the rate of apoptosis”. In addition, the “outcome compared to Group 2 (Doxorubicin once per week)” value in data set [6] (Group 3: ip 3.5 mg/kg once per week) is on record as “no statistical significance”. Also, the body weight result in data set [6] (setting [7]) was “didn't lose weight”. The toxicity vs doxorubicin entry in [6] (setting [7]) was “reduced toxicity”. Besides, in [6] (setting [7]), the tumor volume entry was “even reduced”. Further, the survival result in data set [6] (Group 5: ip 3.5 mg/kg, three sequential days per week, 3.5 mg/kg) is given as “full survival; also recorded: survived until the end of the experiment”. Also, the entries for the “weight maintenance, survival and tumor growth suppression compared with doxorubicin” value in data set [6] and in [6] (listed as Doxorubizen) were “markedly superior” and “profoundly superior”, respectively.
